This assay has as its target human adenosine A2b receptor (Homo sapiens (Human), UniProt P29275). Briefly: Cellular in vitro reporter gene test for A2b receptor activity (CHO-K1, CRE-luciferase, NECA stimulation). In kind it is cell-based. As to conditions: recombinant CHO-K1 cell line, CRE-luciferase reporter, antagonism of EC50 concentration of NECA; in some cases means of several determinations, rounded to two significant figures; read-out: A2b receptor IC50. The essentials:
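CHO-K1 cells with CRE-driven luciferase; antagonists co-incubated with NECA at its EC50, determined in a pre-experiment on each test day. Luciferase read by luminescence 3 h after NECA addition.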
Background: In a reporter assay the amount or activity of a reporter protein is the signal.

One may read the IC50 as the point on the concentration scale where inhibition reaches its midpoint.

human adenosine A2b receptor, sequence (P29275 whole entry): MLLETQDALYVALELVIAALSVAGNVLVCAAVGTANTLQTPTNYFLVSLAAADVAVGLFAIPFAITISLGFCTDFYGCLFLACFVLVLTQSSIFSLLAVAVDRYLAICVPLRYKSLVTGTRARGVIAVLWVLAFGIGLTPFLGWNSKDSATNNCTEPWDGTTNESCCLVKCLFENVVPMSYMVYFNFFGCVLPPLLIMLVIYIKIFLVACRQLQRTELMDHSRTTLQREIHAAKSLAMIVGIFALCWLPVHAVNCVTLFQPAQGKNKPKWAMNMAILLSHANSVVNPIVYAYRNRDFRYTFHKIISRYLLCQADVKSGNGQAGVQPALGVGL

Regarding `COCCn1c(=O)n(CCC=C(F)F)c(=O)c2c(C)c(CN3CCNC3=O)sc21` [Example 322, 3-(4,4-Difluorobut-3-en-1-yl)-1-(2-methoxyethyl)-5-methyl-6-[(2-oxoimidazolidin-1-yl)methyl]thieno[2,3-d]pyrimidine-2,4(1H,3H)-dione], the IC50 came to 1.3 nM.

`CCOCCn1c(=O)n(CC(F)F)c(=O)c2c(C)c(CN3CCNC3=S)sc21` [Example 161, 3-(2,2-Difluoroethyl)-1-(2-ethoxyethyl)-5-methyl-6-[(2-thioxoimidazolidin-1-yl)methyl]thieno[2,3-d]pyrimidine-2,4(1H,3H)-dione]: the 50% inhibitory concentration (IC50) stood at 8.5 nM. With `Cc1c(CN2CCNC(=O)C2=O)sc2c1c(=O)n(CC(C)(C)C)c(=O)n2CC1CCCO1` (single isomer, unassigned) [Example 485, 3-(2,2-Dimethylpropyl)-6-[(2,3-dioxopiperazin-1-yl)methyl]-5-methyl-1-(tetrahydrofuran-2-ylmethyl)thieno[2,3-d]pyrimidine-2,4(1H,3H)-dione] the figure was 52 nM; with `CCn1c(=O)c2c(C)c(CN3CCNC3=O)sc2n(CC(F)(F)F)c1=O` [Example 47, 3-Ethyl-5-methyl-6-[(2-oxoimidazolidin-1-yl)methyl]-1-(2,2,2-trifluoroethyl)thieno[2,3-d]pyrimidine-2,4(1H,3H)-dione], 14 nM. Take `Cc1c(CN2CCNC2=O)sc2c1c(=O)n(CC(C)C)c(=O)n2CC1CCO1` (racemic) [Example 194, 3-Isobutyl-5-methyl-1-(oxetan-2-ylmethyl)-6-[(2-oxoimidazolidin-1-yl)methyl]thieno[2,3-d]pyrimidine-2,4(1H,3H)-dione]: the IC50 is 15 nM. With `COC(C)Cn1c(=O)c2c(C)c(CN3CCNC3=O)sc2n(CCC(F)(F)F)c1=O` (racemic) [Example 412, 3-(2-Methoxypropyl)-5-methyl-6-[(2-oxoimidazolidin-1-yl)methyl]-1-(3,3,3-trifluoropropyl)thieno[2,3-d]pyrimidine-2,4(1H,3H)-dione], the IC50 was found to be 5.4 nM.

Regarding `Cc1c(CN2CCNC2=O)sc2c1c(=O)n(CC(F)F)c(=O)n2CC1CCO1` (single isomer, unassigned) [Example 218, 3-(2,2-Difluoroethyl)-5-methyl-1-(oxetan-2-ylmethyl)-6-[(2-oxoimidazolidin-1-yl)methyl]thieno[2,3-d]pyrimidine-2,4(1H,3H)-dione], the IC50 worked out at 22 nM. With `Cc1c(Cn2nc[nH]c2=O)sc2c1c(=O)n(C(C)C)c(=O)n2CF` [Example 422, 1-(Fluoromethyl)-3-isopropyl-5-methyl-6-[(5-oxo-4,5-dihydro-1H-1,2,4-triazol-1-yl)methyl]thieno[2,3-d]pyrimidine-2,4(1H,3H)-dione], the IC50 came to 170 nM.

Take `COCCn1c(=O)c2c(C)c(CN3CCNC3=NC(=O)OC)sc2n(CC2CCO2)c1=O` (single isomer, unassigned) [Example 389, Methyl [1-{[3-(2-methoxyethyl)-5-methyl-1-(oxetan-2-ylmethyl)-2,4-dioxo-1,2,3,4-tetrahydrothieno[2,3-d]pyrimidin-6-yl]methyl}imidazolidin-2-ylidene]carbamate]: the IC50 is 87 nM. With `CCn1c(=O)c2c(C)c(CN3CCNC(=O)C3=O)sc2n(CC2CCCO2)c1=O` (racemic) [Example 475, 6-[(2,3-Dioxopiperazin-1-yl)methyl]-3-ethyl-5-methyl-1-(tetrahydrofuran-2-ylmethyl)thieno[2,3-d]pyrimidine-2,4(1H,3H)-dione] the figure was 36 nM. With `CCn1c(=O)c2c(C)c(CN3CCNC3=O)sc2n(CCOC2CC2)c1=O` [Example 178, 1-[2-(Cyclopropyloxy)ethyl]-3-ethyl-5-methyl-6-[(2-oxoimidazolidin-1-yl)methyl]thieno[2,3-d]pyrimidine-2,4(1H,3H)-dione], the half-maximal inhibitory concentration (IC50) is 21 nM. To `Cc1c(Cn2[nH]ccc2=O)sc2c1c(=O)n(C(C)C)c(=O)n2CC1CCCO1` (single isomer, unassigned) [Example 135, 3-Isopropyl-5-methyl-6-[(5-oxo-2,5-dihydro-1H-pyrazol-1-yl)methyl]-1-(tetrahydrofuran-2-ylmethyl)thieno[2,3-d]pyrimidine-2,4(1H,3H)-dione] belongs 46 nM; to `Cc1c(CN2CCNC2=NC#N)sc2c1c(=O)n(CC(C)(C)C)c(=O)n2CCCF` [Example 444, [1-{[3-(2,2-Dimethylpropyl)-1-(3-fluoropropyl)-5-methyl-2,4-dioxo-1,2,3,4-tetrahydrothieno[2,3-d]pyrimidin-6-yl]methyl}imidazolidin-2-ylidene]cyanamide], 11 nM.

For the compound `COCCn1c(=O)n(CC(C)(C)C)c(=O)c2c(C)c(CN3CCNC3=O)sc21` [Example 202, 3-(2,2-Dimethylpropyl)-1-(2-methoxyethyl)-5-methyl-6-[(2-oxoimidazolidin-1-yl)methyl]thieno[2,3-d]pyrimidine-2,4(1H,3H)-dione], the IC50 was 7.8 nM. On to `CCn1c(=O)c2c(C)c(CN3CCC(C)C3=O)sc2n(CCC(F)(F)F)c1=O` (racemic) [Example 6, 3-Ethyl-5-methyl-6-[(3-methyl-2-oxopyrrolidin-1-yl)methyl]-1-(3,3,3-trifluoropropyl)thieno[2,3-d]pyrimidine-2,4(1H,3H)-dione (racemate)], for which the IC50 was 8 nM. `COCCn1c(=O)n(C(C)C)c(=O)c2c(C)c(Cn3[nH]ccc3=O)sc21` [Example 133, 3-Isopropyl-1-(2-methoxyethyl)-5-methyl-6-[(5-oxo-2,5-dihydro-1H-pyrazol-1-yl)methyl]thieno[2,3-d]pyrimidine-2,4(1H,3H)-dione]: the 50% inhibitory concentration (IC50) worked out at 26 nM. Take `CCn1c(=O)c2c(C)c(CN3CCNC3=O)sc2n(CC2CCOC2)c1=O` (single isomer, unassigned; enantiomer 1) [Example 74, 3-Ethyl-5-methyl-6-[(2-oxoimidazolidin-1-yl)methyl]-1-(tetrahydrofuran-3-ylmethyl)thieno[2,3-d]pyrimidine-2,4(1H,3H)-dione (Enantiomer 1)]: the concentration for half-maximal inhibition (IC50) is 36 nM. As for `COCCn1c(=O)c2c(C)c(CN3CCNC3=NC(=O)OC)sc2n(CCC(F)(F)F)c1=O` [Example 385, Methyl [1-{[3-(2-methoxyethyl)-5-methyl-2,4-dioxo-1-(3,3,3-trifluoropropyl)-1,2,3,4-tetrahydrothieno[2,3-d]pyrimidin-6-yl]methyl}imidazolidin-2-ylidene]carbamate], the IC50 is 4.7 nM. With `COCCn1c(=O)c2c(C)c(CN3CCNC3=NC(=O)OC)sc2n(CC2CCO2)c1=O` (single isomer, unassigned) [Example 388, Methyl [1-{[3-(2-methoxyethyl)-5-methyl-1-(oxetan-2-ylmethyl)-2,4-dioxo-1,2,3,4-tetrahydrothieno[2,3-d]pyrimidin-6-yl]methyl}imidazolidin-2-ylidene]carbamate] the figure was 33 nM. With `Cc1c(Cn2cc[nH]c2=O)sc2c1c(=O)n(C(C)C)c(=O)n2CC1CCCO1` (racemic) [Example 247, 3-Isopropyl-5-methyl-6-[(2-oxo-2,3-dihydro-1H-imidazol-1-yl)methyl]-1-(tetrahydrofuran-2-ylmethyl)thieno[2,3-d]pyrimidine-2,4(1H,3H)-dione] the figure was 8.9 nM; with `CCn1c(=O)c2c(C)c(CN3CCOCC3=O)sc2n(CCC(F)(F)F)c1=O` [Example 14, 3-Ethyl-5-methyl-6-[(3-oxomorpholin-4-yl)methyl]-1-(3,3,3-trifluoropropyl)thieno[2,3-d]pyrimidine-2,4(1H,3H)-dione], 19 nM; with `COCCn1c(=O)c2c(C)c(Cn3cc[nH]c3=O)sc2n(CCOC)c1=O` [Example 345, 1,3-Bis(2-methoxyethyl)-5-methyl-6-[(2-oxo-2,3-dihydro-1H-imidazol-1-yl)methyl]thieno[2,3-d]pyrimidine-2,4(1H,3H)-dione], 17 nM. With `Cc1c(CN2CCNC(=O)C2=O)sc2c1c(=O)n(C(C)C)c(=O)n2CC1CCCO1` (racemic) [Example 480, 6-[(2,3-Dioxopiperazin-1-yl)methyl]-3-isopropyl-5-methyl-1-(tetrahydrofuran-2-ylmethyl)thieno[2,3-d]pyrimidine-2,4(1H,3H)-dione], the IC50 is 35 nM. To `COCCn1c(=O)c2c(C)c(Cn3nc[nH]c3=O)sc2n(CCC(F)(F)F)c1=O` [Example 439, 3-(2-Methoxyethyl)-5-methyl-6-[(5-oxo-4,5-dihydro-1H-1,2,4-triazol-1-yl)methyl]-1-(3,3,3-trifluoropropyl)thieno[2,3-d]pyrimidine-2,4(1H,3H)-dione] belongs 180 nM; to `COCCn1c(=O)n(CC(C)OC)c(=O)c2c(C)c(CN3CCNC3=O)sc21` (single isomer, unassigned) [Example 235, 1-(2-Methoxyethyl)-3-(2-methoxypropyl)-5-methyl-6-[(2-oxoimidazolidin-1-yl)methyl]thieno[2,3-d]pyrimidine-2,4(1H,3H)-dione], 38 nM.

As for `Cc1c(CN2CCNC2=O)sc2c1c(=O)n(C(C)C)c(=O)n2CC1CCO1` (single isomer, unassigned) [Example 184, 3-Isopropyl-5-methyl-1-(oxetan-2-ylmethyl)-6-[(2-oxoimidazolidin-1-yl)methyl]thieno[2,3-d]pyrimidine-2,4(1H,3H)-dione], the IC50 worked out at 7 nM.

For the compound `COC(=O)N=C1NCCN1Cc1sc2c(c1C)c(=O)n(CC(C)(C)C)c(=O)n2CC1CCCO1` (single isomer, unassigned) [Example 465, Methyl [1-{[3-(2,2-dimethylpropyl)-5-methyl-2,4-dioxo-1-(tetrahydrofuran-2-ylmethyl)-1,2,3,4-tetrahydrothieno[2,3-d]pyrimidin-6-yl]methyl}imidazolidin-2-ylidene]carbamate], the IC50 was found to be 13 nM.

For the compound `COCCn1c(=O)n(CC(F)(F)F)c(=O)c2c(C)c(CN3CCNC(=O)C3=O)sc21` [Example 486, 6-[(2,3-Dioxopiperazin-1-yl)methyl]-1-(2-methoxyethyl)-5-methyl-3-(2,2,2-trifluoroethyl)thieno[2,3-d]pyrimidine-2,4(1H,3H)-dione], the IC50 was found to be 190 nM.

The values are drawn from patent publication US10428083B2, “Heterocyclylmethyl-thienouracile as antagonists of the adenosine-A2B-receptor” (BAYER PHARMA AKTIENGESELLSCHAFT, priority 2015, dated 2019).
